Test results published in PubChem BioAssay (NCI).
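Step 1: Grow cells in 96-well plates. Step 2: Expose to compound for 48 hours at 5 concentrations. Step 3: Interpolate endpoints linearly; if unreached, use highest concentration. At the TGI there is no net growth.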

Experiments:
Assay in all cases: NCI anticancer screen, dose series, 48 h
[1] = system: RXF-631 renal
[2] = system: RXF 393 renal
[3] = system: SF-268 CNS
[4] = system: MALME-3M melanoma
[5] = system: LXFL 529 NSCLC
[6] = system: HCC-2998 colon
[7] = system: A549 NSCLC
[8] = system: U251 CNS
[9] = system: SNB-78 CNS
[10] = system: SK-MEL-28 melanoma
[11] = system: SK-OV-3 ovarian
[12] = system: HOP-18 NSCLC
[13] = system: SR leukemia
[14] = system: HCT-116 colon
[15] = system: NCI-H460 lung
[16] = system: NCI-H522 lung
[17] = system: SK-MEL-2 melanoma
[18] = system: MOLT-4 leukemia
[19] = system: DMS 114 small cell lung
[20] = system: HCT-15 colon
[21] = system: M14 melanoma
[22] = system: OVCAR-3 ovarian
[23] = system: K-562 leukemia
[24] = system: DMS 273 small cell lung
[25] = system: UO-31 renal
[26] = system: HL-60(TB) leukemia
[27] = system: M19-MEL melanoma
[28] = system: RPMI-8226 leukemia
[29] = system: CCRF-CEM leukemia
[30] = system: 786-0 renal

Measured: TGI

O=C(Nc1ccc(Cl)cc1Cl)C(=O)Nn1c(=S)[nH]c2ccccc2c1=O
> 100 µM: all assays above
